Like-named read-outs stand apart in the source and are kept apart here. Marks after values point to notes of the source that are not given here.

This is an account of results in US20050267016A1, “CD-10 activated prodrug compounds” (priority 2001, published 2005).

The subject of series [1] is LNCaP prostate carcinoma xenograft. Briefly: LNCaP prostate carcinoma xenograft in nude mice, Q7D × 3 (Examples 30, 31). The settings on record: for Toxic Endpoint: >20% body weight loss; for Cancer Endpoint: tumors reaching 1000 mg. On the procedure: In this model, 7.5 million LNCaP cells resuspended in 0.1 ml of phosphate buffered saline and 0.1 ml of Matrigel (Becton Dickinson) were injected into the side of male nude mice fed on high fat diet.

The nature of series [2]: Metabolism and clearance in normal mice (plasma and urine, LC MS/MS). The following applies: for dose excreted: iv, 117 mg/kg. In kind it is in vivo. On the procedure:
The metabolism and clearance of Suc-Ile-Ala-Leu-Dox was studied in normal mice. The mice were administered Suc-Ile-Ala-Leu-Dox at a single intravenous bolus dose of 117 mg/kg. Plasma samples were obtained at 1 and 4 hours. Plasma samples of 100 μl were transferred to microcentrifuge tubes (1.5 mL) and an internal standard of daunorubicin (20 μL at 0.5 mg/ml) was added together with acetonitrile (400 μl). The tubes were capped and briefly vortexed followed by centrifugation at 14,000 rpm. 420 μl from each tube was removed and dried in vacuo. Each sample was reconstituted in 65 μl 20 mM aqueous ammonium formate pH 4.5 buffer (AF) containing acetonitrile (20%) prior to analysis by reverse phase liquid chromatography in combination with tandem mass spectrometry (LC MS/MS).
Urine was collected at 2 and 24 hours post administration from pairs of mice in metabolic cages. Urine samples were diluted with AF containing acetonitrile (20%) to give a target analyte concentration within the practical range of the LC MS/MS assay. 30 μl of each diluted sample was placed in an Eppendorf tube (1.5 ml) and an internal standard of daunorubicin (20 μL at 0.5 mg/ml) was added together with 50 μl of AF containing acetonitrile (20%). Each sample was then analyzed by LC MS/MS.
An Agilent HP1100 HPLC with DAD detector and Chemstation software was coupled to a PE Sciex API 365 mass spectrometer with an electrospray ion source. HPLC was performed on a TSK-Gel Super ODS, […], 4.6×50 mm (TosoHaas) reversed phase column equipped with a […] C18 guard disc (Higgins Analytical) and stainless steel frit (Upchurch Scientific). Chromatography was performed at room temperature. The flow rate was 0.5 ml/min. Injection volume was 50 μL. Gradient elution was performed using a mobile phase of 20 mM aqueous AF pH 4.5 buffer with increasing amounts of acetonitrile. The API 365 was operated at 365° C. in a multiple reaction monitoring mode, set to monitor specific analyte parent-daughter ion pairs. Integration of chromatograms was performed by MacQuant software (PE Sciex) and quantitation of each analyte obtained by comparison to previously obtained calibration curves. Daunorubicin was used as an internal standard in all cases.
For the calculation of percent of administered dose, plasma volume was estimated to be 40% of blood volume, which was calculated as 7% of animal's body weight. At 2 and 24 hours the parent compound was detected in urine at 3.9% and 15.0% of the administered dose, showing that the kidney is a major organ of excretion for the prodrug (FIG. 17).
Plasma samples were obtained at 1 and 4 hours from separate mice. Urine was collected at 2 and 24 hours post administration from pairs of mice in metabolic cages. The plasma and urine samples were prepared and analyzed as described in Example 17.

The next series has as its system LNCaP xenografts. Briefly: LNCaP xenograft in SCID mice, Q6DX2, equitoxic comparison (Example 27). The format is in vivo, C.B-17.SCID mice. On the procedure:
All compounds except Suc-βAla-Leu-Ala-Leu-Dox (three levels) were dosed at two levels with the goal to get a dose response for all compounds.
Knowing that the LNCaP tumor bearing nude mice have weight loss, we chose very conservative dose levels for each compound estimated to be well-tolerated equitoxic doses based on earlier studies and SD-MTD results. The high dose level for repeat dosing is usually 80% of their SD-MTD, and the low dose level is 80% of the high dose level. Accordingly, groups of ten male CD17.SCID mice, subcutaneously injected with 2.5 million LNCaP cells, were treated intravenously with the compounds at the levels described in Table 22 at six day intervals for a total of two identical doses (Q6DX2).
LNCaP tumors grew well in SCID mice, but the SCID mice with LNCaP tumor xenografts experienced severe weight loss, as 80% of control mice had more than 25% of weight loss by the end of the study. Nevertheless, the efficacy of different treatments at approximately equitoxic levels were compared based on the time it took for 50% of mice to reach toxic weight loss and the total numbers of mice with toxic weight loss at the end of study.

With `COc1cccc2c1C(=O)c1c(O)c3c(c(O)c1C2=O)C[C@@](O)(C(=O)CO)C[C@@H]3O[C@H]1C[C@H](N)[C@H](O)[C@H](C)O1` [Doxorubicin, reference compound], in series [1] (4 mg/kg Q7D × 3), the “TGI D22” value was 52.2 ± 28.8%, the “Tumor Weight (mg) D22” value turned out to be 323.8 ± 60.8 mg, the “Toxic Endpoint” value is 1 and the “Cancer Endpoint” value came out at 4. For the same compound, the “loss of group mean adjusted body weight” value in series [1] (4 mg/kg Q7D × 3, Day 22) is “about 7%”. For the same compound, the “Survivor D36” value in series [1] (4 mg/kg Q7D × 3, N 8) is “D36: 3”. Moreover, the “Urine (% adm. dose) 2 hr” value in series [2] (after Suc-Ile-Ala-Leu-Dox 117 mg/kg, collected 0-2 hours) is on record as 0.06 % adm. dose. Moreover, the “Urine (% adm. dose) 24 hr” value in series [2] (after Suc-Ile-Ala-Leu-Dox 117 mg/kg, collected 2-24 hours) is on record as 0.36 % adm. dose. In addition, the “Plasma (% adm. dose) 4 hr” value in series [2] (mouse, in vivo, 4 h) was found to be 0.00 % adm. dose. In addition, in the series with LNCaP xenografts (3 mg/kg Q6DX2), the “% Weight Loss at the end of study” value was 60%, the “Growth Inhibition” value is 29% and the “Time: 50% Weight Loss” value was 36 days. Also, in the series on LNCaP xenografts (4 mg/kg Q6DX2), the “Growth Inhibition” value is 29%. In addition, the “% Weight Loss at the end of study” value with LNCaP xenografts (4 mg/kg Q6DX2, mice with toxic weight loss) amounted to 80%. In the series on LNCaP xenografts (4 mg/kg Q6DX2, time for 50% of mice to reach toxic weight loss), the “Time: 50% Weight Loss” value was 33 days.

Turning to `CC[C@H](C)[C@H](NC(=O)CCC(=O)O)C(=O)N[C@@H](C)C(=O)N[C@@H](CC(C)C)C(=O)N[C@H]1C[C@H](O[C@H]2C[C@](O)(C(=O)CO)Cc3c(O)c4c(c(O)c32)C(=O)c2c(OC)cccc2C4=O)O[C@@H](C)[C@H]1O` [Suc-Ile-Ala-Leu-Dox], the dose excreted in series [2] (mouse, in vivo, after Suc-Ile-Ala-Leu-Dox 117 mg/kg, collected 0-2 hours, read-out: Urine (% adm. dose) 2 hr) was found to be 3.9%; in series [2] (mouse, in vivo, after Suc-Ile-Ala-Leu-Dox 117 mg/kg, collected 2-24 hours, read-out: Urine (% adm. dose) 24 hr), 15%. Further, the “Time: 50% Weight Loss” value turned out to be 26 days with LNCaP xenografts (75 mg/kg Q6DX2) and 19 days with LNCaP xenografts (94 mg/kg Q6DX2). Besides, the “Time: 100% Weight Loss” value came out at 43 days with LNCaP xenografts (75 mg/kg Q6DX2) and 36 days in the series with LNCaP xenografts (94 mg/kg Q6DX2).

For `CC[C@H](C)[C@H](NC(=O)CCNC(=O)CCC(=O)O)C(=O)N[C@@H](C)C(=O)N[C@@H](CC(C)C)C(=O)N[C@H]1C[C@H](O[C@H]2C[C@](O)(C(=O)CO)Cc3c(O)c4c(c(O)c32)C(=O)c2c(OC)cccc2C4=O)O[C@@H](C)[C@H]1O` [Suc-βAla-Ile-Ala-Leu-Dox], in series [1] (40 mg/kg (22 Dox equi) Q7D × 3), the “Tumor Weight (mg) D22” value is listed as “D22: 152.1 ± 19.3 mg”. The “TGI D22” value in series [1] (40 mg/kg (22 Dox equi) Q7D × 3, listed as Suc-bAla-Ile-Ala-Leu-Dox) worked out at 77.5 ± 27.5%. Moreover, the “Survivor D36” value in series [1] (40 mg/kg Q7D × 3, N 8) is given as “D36: 8**”. In series [1] (40 mg/kg Q7D × 3), the “Toxic Endpoint” value was 0 and the “Cancer Endpoint” value amounted to 0. The dose excreted in series [2] (mouse, in vivo, Urine (% adm. dose) 2 hr) stood at 12.7%. Moreover, the dose excreted in series [2] (mouse, in vivo, Urine (% adm. dose) 24 hr) amounted to 4.81%. For the same compound, in the series on LNCaP xenografts (50 mg/kg Q6DX2), the “% Weight Loss at the end of study” value is recorded as 80% and the “Time: 50% Weight Loss” value worked out at 33 days. Moreover, in the series with LNCaP xenografts (62 mg/kg Q6DX2), the “Time: 50% Weight Loss” value is 12 days and the “Time: 100% Weight Loss” value came out at 33 days.

For the compound `COc1cccc2c1C(=O)c1c(O)c3c(c(O)c1C2=O)C[C@@](O)(C(=O)CO)C[C@@H]3O[C@H]1C[C@H](NC(=O)[C@H](CC(C)C)NC(=O)[C@H](C)NC(=O)[C@H](CC(C)C)NC(=O)CCNC(=O)CCC(=O)O)[C@H](O)[C@H](C)O1` [Suc-βAla-Leu-Ala-Leu-Dox], the entries for the “TGI D22” value in series [1] (32 mg/kg (18 Dox equi) Q7D × 3) and in series [1] (50 mg/kg (28 Dox equi) Q7D × 3) were 82.8 ± 27.7% and 78.8 ± 27.5%, respectively. The “Tumor Weight (mg) D22” value is on record as 116.3 ± 30.2 mg in series [1] (32 mg/kg (18 Dox equi) Q7D × 3) and 143.4 ± 19.0 mg in series [1] (50 mg/kg (28 Dox equi) Q7D × 3). For the same compound, the “Survivor D36” value in series [1] (32 mg/kg Q7D × 3, N 8) was 8**; in series [1] (50 mg/kg Q7D × 3, N 8), 8**. In addition, the “Toxic Endpoint” value in series [1] (32 mg/kg Q7D × 3), in series [1] (40 mg/kg Q7D × 3) and in series [1] (50 mg/kg Q7D × 3) was 0 in each case. The “Cancer Endpoint” value in series [1] (32 mg/kg Q7D × 3), in series [1] (40 mg/kg Q7D × 3) and in series [1] (50 mg/kg Q7D × 3) was 0 throughout. In addition, the “maximal loss of group mean adjusted body weight” value in series [1] (all three doses (32, 40, 50 mg/kg) Q7D × 3, to Day 36) is on record as no more than 3%. In addition, the “Time: 50% Weight Loss” value is 33 days in the series on LNCaP xenografts (40 mg/kg Q6DX2), 19 days in the series with LNCaP xenografts (50 mg/kg Q6DX2) and 15 days with LNCaP xenografts (62 mg/kg Q6DX2). Moreover, the “Time: 100% Weight Loss” value is 54 days with LNCaP xenografts (40 mg/kg Q6DX2), 40 days with LNCaP xenografts (50 mg/kg Q6DX2) and 33 days with LNCaP xenografts (62 mg/kg Q6DX2).
